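Cells were grown in 96-well plates and exposed to each compound for 48 hours at five concentrations; endpoints were interpolated linearly between bracketing concentrations, or set to the highest concentration if not reached. GI50 = concentration required for 50% inhibition of growth.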 Active and inactive are the calls of the source. No stated cut-off is given here; in the data, active = GI50 up to about 1.1 µM and inactive = higher.
Columns and labels:
Assay in all cases: NCI tumour cell line growth inhibition, 48 h
SF-295 = tested on: SF-295
IGROV-1 = tested on: IGROV-1
UACC-257 = tested on: UACC-257
BT-549 = tested on: BT-549
SN12C = tested on: SN12C
K562 = tested on: K562
SF-539 = tested on: SF-539
HT-29 = tested on: HT-29
A549 = tested on: A549
ACHN = tested on: ACHN
SK-MEL-28 = tested on: SK-MEL-28
HOP-62 = tested on: HOP-62
HL-60 = tested on: HL-60
NCI-H460 = tested on: NCI-H460
RPMI-8226 = tested on: RPMI-8226
OVCAR-4 = tested on: OVCAR-4
PC-3 = tested on: PC-3
HCT-116 = tested on: HCT-116
UO-31 = tested on: UO-31

Measured: GI50

CC(C)C[C@H](NC(=O)[C@@H](Cc1cccc2ccccc12)NC(=O)N1CCOCC1)B(O)O
inactive: SF-295 14 µM | IGROV-1 5.06 µM | UACC-257 2.18 µM | BT-549 3.99 µM | SN12C 5.55 µM | K562 3.55 µM | SF-539 2.04 µM | HT-29 2.64 µM | A549 19.8 µM | ACHN 9.25 µM | SK-MEL-28 2.14 µM | HOP-62 16 µM | HL-60 2.77 µM | NCI-H460 18.5 µM | RPMI-8226 2.52 µM | OVCAR-4 4.72 µM | PC-3 7.82 µM | HCT-116 2.24 µM | UO-31 19.5 µM

COc1cc(C#CC(=O)OC/C=C/c2ccc3c(c2)OCO3)cc(OC)c1OC
inactive: SF-295 36.1 µM | UACC-257 26.8 µM | BT-549 19.4 µM | SN12C 31.2 µM | K562 28.9 µM | SF-539 20.7 µM | HT-29 > 100 µM | A549 33.7 µM | ACHN 29.2 µM | SK-MEL-28 > 100 µM | HOP-62 24 µM | HL-60 36.5 µM | NCI-H460 24.9 µM | RPMI-8226 20.5 µM | OVCAR-4 59.7 µM | PC-3 21.8 µM | HCT-116 22.7 µM | UO-31 15.6 µM

CCN(C(=S)N[C@@H](Cc1ccccc1)C(=O)N[C@@H](CC(C)C)C(=O)OC)c1ccccc1
inactive: SF-295 > 100 µM | IGROV-1 50.4 µM | UACC-257 > 100 µM | BT-549 69 µM | SN12C > 100 µM | K562 43.2 µM | SF-539 > 100 µM | HT-29 46 µM | A549 78.2 µM | ACHN 47.3 µM | SK-MEL-28 > 100 µM | HOP-62 > 100 µM | NCI-H460 58.2 µM | RPMI-8226 75.9 µM | OVCAR-4 > 100 µM | PC-3 63.1 µM | HCT-116 75 µM | UO-31 > 100 µM

O=C(O)C1CC(c2ccc(F)cc2)=Nc2ccc(F)cc2S1 (centres undefined)
inactive: SF-295 > 100 µM | IGROV-1 > 100 µM | UACC-257 > 100 µM | BT-549 > 100 µM | SN12C > 100 µM | K562 > 100 µM | SF-539 92.3 µM | HT-29 > 100 µM | A549 > 100 µM | ACHN > 100 µM | SK-MEL-28 > 100 µM | HL-60 > 100 µM | NCI-H460 > 100 µM | RPMI-8226 > 100 µM | OVCAR-4 > 100 µM | PC-3 > 100 µM | HCT-116 > 100 µM | UO-31 > 100 µM

CN[C@@H](C)[C@H](OP(=O)(O)OC1[C@@H](O)[C@H](O)C(O)[C@H](O)[C@@H]1O)c1ccccc1 (some centres undefined)
inactive: SF-295 > 100 µM | IGROV-1 > 100 µM | UACC-257 > 100 µM | BT-549 > 100 µM | SN12C > 100 µM | SF-539 16.3 µM | HT-29 > 100 µM | A549 > 100 µM | ACHN > 100 µM | SK-MEL-28 > 100 µM | HOP-62 > 100 µM | HL-60 > 100 µM | NCI-H460 > 100 µM | RPMI-8226 > 100 µM | OVCAR-4 > 100 µM | PC-3 > 100 µM | HCT-116 > 100 µM | UO-31 > 100 µM

O=S1(=O)NC2CCC3NS(=O)(=O)NC4CCC(N1)N4S(=O)(=O)N23 (centres undefined)
inactive: SF-295 > 100 µM | IGROV-1 > 100 µM | UACC-257 > 100 µM | BT-549 > 100 µM | SN12C > 100 µM | K562 > 100 µM | SF-539 > 100 µM | HT-29 > 100 µM | A549 > 100 µM | ACHN > 100 µM | SK-MEL-28 > 100 µM | HOP-62 > 100 µM | HL-60 > 100 µM | NCI-H460 > 100 µM | RPMI-8226 > 100 µM | OVCAR-4 > 100 µM | PC-3 > 100 µM | HCT-116 > 100 µM | UO-31 > 100 µM

NCCOc1cccc(C2(N3CCCCC3)CCCCC2)c1
inactive: SF-295 28.8 µM | UACC-257 19 µM | BT-549 19.1 µM | SN12C > 100 µM | K562 16 µM | SF-539 17.5 µM | HT-29 15.5 µM | A549 37.2 µM | ACHN > 100 µM | SK-MEL-28 18.7 µM | HOP-62 92.5 µM | HL-60 25 µM | NCI-H460 41.5 µM | RPMI-8226 20.9 µM | OVCAR-4 35.9 µM | PC-3 31.5 µM | HCT-116 16.2 µM | UO-31 13.7 µM

O=c1oc2ccc3ccccc3c2cc1-c1cn2ccccc2n1
inactive: SF-295 37.2 µM | IGROV-1 > 100 µM | UACC-257 > 100 µM | BT-549 > 100 µM | SN12C 48.1 µM | K562 > 100 µM | SF-539 25.9 µM | HT-29 26.5 µM | A549 24.7 µM | ACHN 22.6 µM | SK-MEL-28 > 100 µM | HOP-62 52.6 µM | HL-60 > 100 µM | NCI-H460 > 100 µM | RPMI-8226 > 100 µM | PC-3 > 100 µM | HCT-116 14.9 µM | UO-31 20 µM

C[C@]12CC[C@H]3[C@@H](CC=C4C[C@@H](O)CC[C@@]43C)[C@@H]1C/C(=C/c1ccccc1)[C@@H]2O
inactive: SF-295 > 36.7 µM | IGROV-1 11.8 µM | UACC-257 15.6 µM | BT-549 24.1 µM | K562 > 23.6 µM | SF-539 30.7 µM | HT-29 28.3 µM | A549 > 35.6 µM | ACHN 16.4 µM | SK-MEL-28 > 44.6 µM | HOP-62 19.7 µM | HL-60 > 43 µM | NCI-H460 20.1 µM | RPMI-8226 > 32.1 µM | OVCAR-4 19.2 µM | PC-3 18.9 µM | HCT-116 8.53 µM | UO-31 18.1 µM

CC(C)CC(NC(=O)C(CSc1ccc([N+](=O)[O-])cc1)Cc1ccccc1)C(=O)Nc1ccccc1 (centres undefined)
inactive: SF-295 39.1 µM | IGROV-1 46.6 µM | UACC-257 > 100 µM | BT-549 12.3 µM | SN12C > 100 µM | K562 85.5 µM | SF-539 47.9 µM | A549 93.5 µM | ACHN 80.7 µM | SK-MEL-28 98.2 µM | HL-60 40.9 µM | NCI-H460 49.8 µM | RPMI-8226 > 100 µM | OVCAR-4 35.1 µM | PC-3 > 100 µM | HCT-116 > 100 µM | UO-31 43.1 µM

NCCc1ccc(S(=O)(=O)O)cc1[N+](=O)[O-]
inactive: SF-295 > 100 µM | IGROV-1 > 100 µM | UACC-257 > 100 µM | BT-549 > 100 µM | SN12C > 100 µM | SF-539 > 100 µM | HT-29 > 100 µM | A549 > 100 µM | ACHN > 100 µM | SK-MEL-28 > 100 µM | HOP-62 > 100 µM | HL-60 > 100 µM | NCI-H460 > 100 µM | RPMI-8226 > 100 µM | OVCAR-4 > 100 µM | PC-3 > 100 µM | HCT-116 > 100 µM | UO-31 > 100 µM

From ChEMBL document CHEMBL1201862, “PubChem BioAssay data set” (2004)
